From article PMC5786788, “Antimicrobial Octapeptin C4 Analogues Active against Cryptococcus Species” (Antimicrobial Agents and Chemotherapy, 2018)
Read-outs that look alike come from different tables or passages of the source. Where a SMILES comes first, the peptide text is derived from it. Bridges are numbered along the chain shown (N, C = ends). [ ]: non-standard residue; d: D form. The star is where a group is joined. Decanoyl(3R-OH) = CCCCCCC[C@@H](O)CC(=O)*; dDab = NCC[C@@H](N)C(=O)O; Dab = NCC[C@H](N)C(=O)O

Tests used:
[1] = tested on: C. neoformans H99 (cap59Δ); format: cell-based, Cryptococcus neoformans; details: Table 2; triplicate, values consistent across replicates
Text: The different susceptibility of C. neoformans and C. gattii to PMB compared to other pathogenic fungi such as C. albicans and A. fumigatus has been postulated to arise from differences in cell surface composition ([38]). One key difference is the presence of a negatively charged polysaccharide capsule in Cryptococcus spp. proposed to concentrate the cationic lipopeptides at the cell surface ([38]). To examine this potential interaction for the octapeptin series, a C. neoformans cap59Δ mutant strain deficient in the secretion of negatively charged glucuronoxylomannan (an α1–3-linked mannan containing β1,2 and β1,4 xylosyl substitutions, as well as β1,2-linked glucuronyl residues) ([41], [42]), was tested against octapeptin C4 in comparison to PMB.
(§1) Fungal strains were stored in 15% glycerol at −80°C until use. The fungal strains used were H99 (C. neoformans type strain) ([55]), cap59Δ (an acapsular H99 mutant) ([56]), ATCC 90113 (C. neoformans), MMRL 2651 (C. gattii), ATCC 90028 (Candida albicans), ATCC 90030 (Candida glabrata), ATCC 22019 (Candida parapsilosis), and ATCC MYA 3626 (Aspergillus fumigatus). Yeasts were cultured in liquid (1% yeast extract, 2% Bacto peptone, 2% glucose) or solid (additional 2% agar) yeast extract-peptone-dextrose (YPD) media at 30°C and maintained at 4°C for no longer than 2 weeks. A. fumigatus was prepared on potato dextrose medium at 30°C and maintained at 4°C for no longer than 2 weeks.
(§2) The MICs of the yeast strains for PMB, PME, and octapeptin C4 and its derivatives were determined in accordance with CLSI M27-A2 guidelines using YNB (Becton Dickinson, USA) medium supplemented with 10 mM ammonium sulfate and 2% glucose, a final inoculum concentration of 1.5 × 10^3 to 2.0 × 10^3 cells/ml, and incubation at 35°C for 72 h ([39]). […] The MICs for PMB, PME, and octapeptin C4 for A. fumigatus were determined in accordance with the CLSI M38-A2 guidelines ([40]) using synthetic RPMI 1640 medium (with glutamine, without bicarbonate and with phenol red; Life Technologies, USA). The final inoculum concentration was 0.4 × 10^4 to 5 × 10^4 cells/ml, with incubation at 35°C for 48 h. […] All assays were completed in triplicate. Fluconazole was used as a positive control where the MIC was determined at both 50% growth (in accordance with CLSI M27-A2 guidelines) and when there was a “no visible growth” reading.

[2] = tested on: C. gattii MMRL 2651
Procedure: (§3) A broth microdilution assay was initially used to characterize the antifungal activity of the cyclic lipopeptides ([39], [40]). […] common pathogenic yeasts (C. albicans, C. glabrata, C. parapsilosis, C. neoformans, and C. gattii) and one pathogenic mold (A. fumigatus) were tested to determine the MIC for each compound (Table 1) using broth microdilution. […] The only structural difference between these molecules is the presence of a phenylalanine residue at position 6 in PMB; in PME a D-leucine is present at this location (Fig. 1).
as §1, §2

[3] = tested on: C. neoformans ATCC 90113; details: ATCC 90113, 72 h
Procedure: as §3, §1, §2

[4] = tested on: C. neoformans H99; details: H99, 72 h
Procedure: as §3, §1, §2

SMILES | MICs against various Cryptococcus strains: H99 (cap59Δ) [1] [µg/mL] | MICs against various Cryptococcus strains: MMRL 2651 ([2]; Table 2, C. gattii, triplicate, values consistent across replicates) [µg/mL] | MICs against various Cryptococcus strains: ATCC 90113 [3] [µg/mL] | MICs against various Cryptococcus strains: H99 [4] [µg/mL] | MICs against various Cryptococcus strains: MMRL 2651 ([2]; 72 h) [µg/mL]
CCCCCCC[C@@H](O)CC(=O)N[C@H](CCN)C(=O)N[C@H]1CCNC(=O)[C@H](CC(C)C)NC(=O)[C@H](CCN)NC(=O)[C@H](CCN)NC(=O)[C@H](CC(C)C)NC(=O)[C@@H](Cc2ccccc2)NC(=O)[C@H](C)NC1=O [Compound P3] ({Decanoyl(3R-OH)}-[dDab][Dab]A[dF]L[Dab][Dab]L; lactam 2-C) | 12.5 | 12.5 | 6.25 | 6.25 | –
CCCCCCC[C@@H](O)CC(=O)N[C@H](CCN)C(=O)N[C@H]1CCNC(=O)[C@H](CC(C)C)NC(=O)[C@H](CCN)NC(=O)[C@H](CCN)NC(=O)[C@H](CC(C)C)NC(=O)[C@@H](C)NC(=O)[C@H](CCN)NC1=O [Compound P4D] ({Decanoyl(3R-OH)}-[dDab][Dab][Dab][dA]L[Dab][Dab]L; lactam 2-C) | 50.0 | – | 12.5 | 12.5 | 25.0
CCCCCCC[C@@H](O)CC(=O)N[C@H](CCN)C(=O)N[C@H]1CCNC(=O)[C@H](CC(C)C)NC(=O)[C@H](CCN)NC(=O)[C@H](CCN)NC(=O)[C@H](CC(C)C)NC(=O)[C@H](C)NC(=O)[C@H](CCN)NC1=O [Compound P4L] ({Decanoyl(3R-OH)}-[dDab][Dab][Dab]AL[Dab][Dab]L; lactam 2-C) | 100.0 | – | 25.0 | 50.0 | 100
CCCCCCC[C@@H](O)CC(=O)N[C@H](CCN)C(=O)N[C@H]1CCNC(=O)[C@H](CC(C)C)NC(=O)[C@H](CCN)NC(=O)[C@H](CCN)NC(=O)[C@H](C)NC(=O)[C@@H](Cc2ccccc2)NC(=O)[C@H](CCN)NC1=O [Compound P5] ({Decanoyl(3R-OH)}-[dDab][Dab][Dab][dF]A[Dab][Dab]L; lactam 2-C) | 50.0 | – | 12.5 | 12.5 | 25.0
